# Source: the supplement of paper PMC10307832
# Legend:
# Assay in all cases: relative viability (nuclei count vs DMSO), 5 days (fraction); higher = more cells survive
# [1] = compound: C1CC(C1)(C(=O)O)C(=O)O.[NH2-].[NH2-].[Pt+2] [Carboplatin] + COc1cccc2cc(-c3nc([C@H]4CC[C@H](C(=O)O)CC4)n4ncnc(N)c34)[nH]c12 [OSI-027] (partner 0.5 µM)
# Procedure, shortened: (§1)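 Relative viability was taken as the ratio of nuclei in treated wells to nuclei in vehicle wells. Lung cancer cell lines in 1536-well plates received compounds by pin tool one day after seeding, either one drug alone or a fixed anchor-drug dose plus five library-drug doses (not always all listed) in √10 steps. Nuclei were counted on 4× images after 5 days of treatment, and values are medians of duplicate plates.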
# [2] = compound: C1CC(C1)(C(=O)O)C(=O)O.[NH2-].[NH2-].[Pt+2] [Carboplatin] + Nc1ncn([C@H]2C[C@H](O)[C@@H](CO)O2)c(=O)n1 [Decitabine] (partner 2 µM)
# Procedure, shortened: as §1
# [3] = compound: NS(=O)(=O)OC[C@@H]1C[C@@H](n2ccc3c(N[C@H]4CCc5ccccc54)ncnc32)C[C@@H]1O [MLN4924] + COc1cc2c(Oc3ccc(NC(=O)C4(C(=O)Nc5ccc(F)cc5)CC4)cc3F)ccnc2cc1OCCCN1CCOCC1 [Foretinib] (partner 0.25 µM)
# Procedure, shortened: as §1
# [4] = compound: CC[C@H](C)N1C=C(C2=C(C=C(C=C21)C3=CN=C(C=C3)N4CCNCC4)C(=O)NCC5=C(C=C(NC5=O)C)C)C [GSK126] + Nc1ncn([C@H]2C[C@H](O)[C@@H](CO)O2)c(=O)n1 [Decitabine] (partner 2 µM)
# Procedure, shortened: as §1
Cell Line,relative viability ([1]; first compound 0.08 µM),relative viability ([1]; first compound 0.253 µM),relative viability ([1]; first compound 0.8 µM),relative viability ([1]; first compound 2.53 µM),relative viability ([1]; first compound 8 µM),relative viability ([2]; first compound 0.08 µM),relative viability ([2]; first compound 0.253 µM),relative viability ([2]; first compound 0.8 µM),relative viability ([2]; first compound 2.53 µM),relative viability ([2]; first compound 8 µM),relative viability ([3]; first compound 0.04 µM),relative viability ([3]; first compound 0.1265 µM),relative viability ([3]; first compound 0.4 µM),relative viability ([3]; first compound 1.265 µM),relative viability ([3]; first compound 4 µM),relative viability ([4]; first compound 0.08 µM),relative viability ([4]; first compound 0.253 µM),relative viability ([4]; first compound 0.8 µM),relative viability ([4]; first compound 2.53 µM),relative viability ([4]; first compound 8 µM)
NCI-H322M,0.544,0.503,0.599,0.506,0.408,0.74,0.723,0.711,0.763,0.62,1.12,1.22,0.801,0.284,0.357,0.656,0.676,0.758,0.733,0.754
NCI-H358,1,0.878,0.8,0.843,0.611,0.213,0.222,0.201,0.201,0.186,0.781,0.694,0.397,0.0949,0.094,0.231,0.2,0.207,0.229,0.218
NCI-H441,0.715,0.668,0.767,0.696,0.451,0.215,0.242,0.211,0.209,0.222,0.923,0.79,0.515,0.238,0.183,0.248,0.236,0.143,0.214,0.234
NCI-H460,0.778,0.708,0.631,0.332,0.0817,0.461,0.476,0.481,0.298,0.149,1.01,1.09,0.855,0.297,0.0485,0.605,0.495,0.468,0.37,0.446
NCI-H520,0.245,0.237,0.317,0.289,0.253,0.551,0.545,0.449,0.457,0.438,0.732,0.502,0.409,0.305,0.205,0.611,0.505,0.487,0.494,0.557
NCI-H596,0.909,0.803,0.781,0.654,0.514,1.16,1.13,0.986,0.958,0.629,0.847,1.04,–,0.65,0.58,1.09,0.882,1.04,1.05,1.06
NCI-H647,0.724,0.637,0.692,0.57,0.575,0.45,0.305,0.286,0.292,0.306,0.818,0.848,0.188,0.0561,0.0661,0.445,0.356,0.484,0.383,0.437
NCI-H650,0.526,0.514,0.601,0.539,0.356,0.308,0.329,0.344,0.328,0.246,0.863,0.499,0.341,0.197,0.191,0.33,0.293,0.311,0.299,0.322
NCI-H661,0.758,0.824,0.66,0.578,0.478,0.526,0.577,0.534,0.521,0.526,0.902,0.776,0.67,0.393,0.399,0.626,0.506,0.498,0.535,0.563
NCI-H727,0.732,0.547,0.555,0.617,0.551,1.12,0.956,0.882,0.935,0.861,0.863,0.737,0.515,0.285,0.335,1.01,1.03,0.804,0.89,0.864
NCI-H838,0.468,0.32,0.439,0.364,0.391,0.479,0.492,0.425,0.412,0.386,0.684,0.503,0.22,0.174,0.16,0.52,0.492,0.451,0.508,0.502
NCI-H1355,0.476,0.375,0.413,0.377,0.415,0.337,0.379,0.329,0.333,0.28,0.943,0.91,0.889,0.472,0.201,0.391,0.334,0.318,0.336,0.416
NCI-H1395,0.83,0.597,0.674,0.527,0.52,0.797,0.747,0.63,0.584,0.516,0.951,0.818,0.538,0.41,0.362,0.718,0.671,0.713,0.736,0.652
NCI-H1437,0.935,0.822,0.83,0.749,0.488,0.508,0.556,0.529,0.508,0.464,0.835,1.15,0.739,0.465,0.22,0.584,0.569,0.536,0.499,0.527
